Experimental data from ChEMBL document CHEMBL1151454, “Failures in clinical treatment of Staphylococcus aureus Infection with daptomycin are associated with alterations in surface charge, membrane phospholipid asymmetry, and drug binding” (Antimicrob Agents Chemother, 2008).
In brackets after ≈: the same amount, converted by molar mass. Activity calls are given as the source filed them. The rule behind the calls is not given here. Non-standard residues stand in square brackets, D forms with d. Residues, ends and D or L forms follow the SMILES beside them. *: point of attachment. NHCH2CH2OH = OCCN*; For = O=C*

Experiments:
[1] = test system: Staphylococcus aureus; assay: Drug binding to daptomycin-transitional Staphylococcus aureus isolate 629 bloodstream form isolated from patient with endocarditis at 32 ug after 10 mins by radial diffusion assay; format: ADME, organism-based
[2] = test system: Staphylococcus aureus; assay: Antibacterial activity against daptomycin-transitional Staphylococcus aureus isolate 629 bloodstream form isolated from patient with endocarditis after 18 hrs by microdilution technique; format: functional; conditions: Staphylococcus aureus, 629, 18 h
[3] = test system: Staphylococcus aureus; assay: Antibacterial activity against daptomycin-nonsusceptible Staphylococcus aureus isolate 703 bloodstream form isolated from patient with endocarditis after 18 hrs by microdilution technique; format: functional; conditions: Staphylococcus aureus, 703, 18 h
[4] = test system: Staphylococcus aureus; assay: Drug binding to daptomycin-nonsusceptible Staphylococcus aureus isolate 703 bloodstream form isolated from patient with endocarditis at 32 ug after 10 mins by radial diffusion assay; format: ADME, organism-based
[5] = test system: Staphylococcus aureus; assay: Drug binding to methicillin-susceptible Staphylococcus aureus isolate 616 bloodstream form isolated from patient with endocarditis at 32 ug after 10 mins by radial diffusion assay; format: ADME, organism-based
[6] = test system: Staphylococcus aureus; assay: Antibacterial activity against daptomycin-nonsusceptible Staphylococcus aureus isolate 701 bloodstream form isolated from patient with endocarditis after 18 hrs by microdilution technique; format: functional; conditions: Staphylococcus aureus, 701, 18 h
[7] = test system: Staphylococcus aureus; assay: Drug binding to daptomycin-nonsusceptible Staphylococcus aureus isolate 701 bloodstream form isolated from patient with endocarditis at 32 ug after 10 mins by radial diffusion assay; format: ADME, organism-based
[8] = test system: Staphylococcus aureus; assay: Antibacterial activity against methicillin-susceptible Staphylococcus aureus isolate 616 bloodstream form isolated from patient with endocarditis after 18 hrs by microdilution technique; format: functional; conditions: Staphylococcus aureus, 616, 18 h
[9] = test system: Staphylococcus aureus; assay: Induction of cell membrane depolarization in methicillin-susceptible Staphylococcus aureus isolate 616 bloodstream form isolated from patient with endocarditis at 6 ug/ml after 60 mins by flow cytometry; format: functional, organism-based
[10] = test system: Staphylococcus aureus; assay: Antibacterial activity against daptomycin-nonsusceptible Staphylococcus aureus isolate 701 bloodstream form isolated from patient with endocarditis by Etest; format: functional
[11] = test system: Staphylococcus aureus; assay: Induction of cell membrane depolarization in daptomycin-nonsusceptible Staphylococcus aureus isolate 701 bloodstream form isolated from patient with endocarditis at 0.75 ug/ml after 60 mins by flow cytometry; format: functional, organism-based
[12] = test system: Staphylococcus aureus; assay: Induction of cell membrane depolarization in daptomycin-transitional Staphylococcus aureus isolate 629 bloodstream form isolated from patient with endocarditis at 6 ug/ml after 60 mins by flow cytometry; format: functional, organism-based
[13] = test system: Staphylococcus aureus; assay: Antibacterial activity against daptomycin-transitional Staphylococcus aureus isolate 629 bloodstream form isolated from patient with endocarditis assessed as inhibition on heterogeneous subpopulation survival rate at 0.5 and 1 ug/ml after 48 hrs; format: functional, organism-based
[14] = test system: Staphylococcus aureus; assay: Drug binding to daptomycin-transitional Staphylococcus aureus isolate 629 bloodstream form isolated from patient with endocarditis at 6 ug after 10 mins by radial diffusion assay; format: ADME, organism-based
[15] = test system: Staphylococcus aureus; assay: Induction of cell membrane depolarization in daptomycin-nonsusceptible Staphylococcus aureus isolate 703 bloodstream form isolated from patient with endocarditis at 6 ug/ml after 60 mins by flow cytometry; format: functional, organism-based
[16] = test system: Staphylococcus aureus; assay: Antibacterial activity against daptomycin-nonsusceptible Staphylococcus aureus isolate 703 bloodstream form isolated from patient with endocarditis by Etest; format: functional
[17] = test system: Staphylococcus aureus; assay: Induction of cell membrane depolarization in daptomycin-nonsusceptible Staphylococcus aureus isolate 703 bloodstream form isolated from patient with endocarditis at 40 ug/ml after 60 mins by flow cytometry; format: functional, organism-based
[18] = test system: Staphylococcus aureus; assay: microbe, parasite or virus in culture; conditions: 616
Description: Antibacterial activity against methicillin-susceptible Staphylococcus aureus isolate 616 bloodstream form isolated from patient with endocarditis by Etest

[19] = test system: Staphylococcus aureus; assay: Reduction of membrane permeabilization in methicillin-susceptible Staphylococcus aureus isolate 616 bloodstream form isolated from patient with endocarditis assessed as calcein retention at 1.5 ug/ml after 120 mins by fluorometric analysis; format: functional, organism-based
[20] = test system: Staphylococcus aureus; assay: Antibacterial activity against Staphylococcus aureus SA113 by Etset; format: functional
[21] = test system: Staphylococcus aureus; assay: Induction of autolysis in daptomycin-nonsusceptible Staphylococcus aureus isolate 701 bloodstream form isolated from patient 6 ug/ml within 4 to 24 hrs; format: functional, organism-based
[22] = test system: Staphylococcus aureus; assay: Drug binding to daptomycin-nonsusceptible Staphylococcus aureus isolate 701 bloodstream form isolated from patient with endocarditis at 6 ug after 10 mins by radial diffusion assay; format: ADME, organism-based
[23] = test system: Staphylococcus aureus; assay: Drug binding to methicillin-susceptible Staphylococcus aureus isolate 616 bloodstream form isolated from patient with endocarditis at 6 ug after 10 mins by radial diffusion assay; format: ADME, organism-based; conditions: in vivo
[24] = test system: Staphylococcus aureus; assay: Reduction of membrane permeabilization in daptomycin-transitional Staphylococcus aureus isolate 629 bloodstream form isolated from patient with endocarditis assessed as calcein retention at 1.5 ug/ml after 120 mins by fluorometric analysis; format: functional, organism-based
[25] = test system: Staphylococcus aureus; assay: Antibacterial activity against daptomycin-nonsusceptible Staphylococcus aureus isolate 701 bloodstream form isolated from patient with endocarditis assessed as inhibition on heterogeneous subpopulation survival rate at 0.5 and 4 ug/ml after 48 hrs; format: functional, organism-based
[26] = test system: Staphylococcus aureus; assay: Antibacterial activity against methicillin-susceptible Staphylococcus aureus isolate 616 bloodstream form isolated from patient with endocarditis assessed as inhibition on heterogeneous subpopulation survival rate at 0.5 and 1 ug/ml after 48 hrs; format: functional, organism-based
[27] = test system: Staphylococcus aureus; assay: Induction of cell membrane depolarization in daptomycin-transitional Staphylococcus aureus isolate 629 bloodstream form isolated from patient with endocarditis at 0.75 ug/ml after 60 mins by flow cytometry; format: functional, organism-based
[28] = test system: Staphylococcus aureus; assay: Reduction of membrane permeabilization in daptomycin-nonsusceptible Staphylococcus aureus isolate 701 bloodstream form isolated from patient with endocarditis assessed as calcein retention at 1.5 ug/ml after 120 mins by fluorometric analysis; format: functional, organism-based
[29] = test system: Staphylococcus aureus; assay: Induction of autolysis in methicillin-susceptible Staphylococcus aureus isolate 616 bloodstream form isolated from patient 6 ug/ml within 4 to 24 hrs; format: functional, organism-based
[30] = test system: Staphylococcus aureus; assay: Induction of cell membrane depolarization in methicillin-susceptible Staphylococcus aureus isolate 616 bloodstream form isolated from patient with endocarditis at 40 ug/ml after 60 mins by flow cytometry; format: functional, organism-based
[31] = test system: Staphylococcus aureus; assay: Induction of cell membrane depolarization in daptomycin-nonsusceptible Staphylococcus aureus isolate 701 bloodstream form isolated from patient with endocarditis at 40 ug/ml after 60 mins by flow cytometry; format: functional, organism-based
[32] = test system: Staphylococcus aureus; assay: Induction of autolysis in daptomycin-nonsusceptible Staphylococcus aureus isolate 703 bloodstream form isolated from patient 6 ug/ml within 4 to 24 hrs; format: functional, organism-based
[33] = test system: Staphylococcus aureus; assay: Reduction of membrane permeabilization in daptomycin-nonsusceptible Staphylococcus aureus isolate 703 bloodstream form isolated from patient with endocarditis assessed as calcein retention at 1.5 ug/ml after 120 mins by fluorometric analysis; format: functional, organism-based
[34] = test system: Staphylococcus aureus; assay: Induction of cell membrane depolarization in daptomycin-transitional Staphylococcus aureus isolate 629 bloodstream form isolated from patient with endocarditis at 40 ug/ml after 60 mins by flow cytometry; format: functional, organism-based
[35] = test system: Staphylococcus aureus; assay: Induction of cell membrane depolarization in methicillin-susceptible Staphylococcus aureus isolate 616 bloodstream form isolated from patient with endocarditis at 0.75 ug/ml after 60 mins by flow cytometry; format: functional, organism-based
[36] = test system: Staphylococcus aureus; assay: Drug binding to daptomycin-nonsusceptible Staphylococcus aureus isolate 703 bloodstream form isolated from patient with endocarditis at 6 ug after 10 mins by radial diffusion assay; format: ADME, organism-based
[37] = test system: Staphylococcus aureus; assay: Induction of cell membrane depolarization in daptomycin-nonsusceptible Staphylococcus aureus isolate 701 bloodstream form isolated from patient with endocarditis at 6 ug/ml after 60 mins by flow cytometry; format: functional, organism-based
[38] = test system: Staphylococcus aureus; assay: Antibacterial activity against Staphylococcus aureus SA113 harboring null mutation in mprF gene by Etset; format: functional
[39] = test system: Staphylococcus aureus; assay: Antibacterial activity against daptomycin-transitional Staphylococcus aureus isolate 629 bloodstream form isolated from patient with endocarditis by Etest; format: functional
[40] = test system: Staphylococcus aureus; assay: Induction of cell membrane depolarization in daptomycin-nonsusceptible Staphylococcus aureus isolate 703 bloodstream form isolated from patient with endocarditis at 0.75 ug/ml after 60 mins by flow cytometry; format: functional, organism-based
[41] = test system: Staphylococcus aureus; assay: Antibacterial activity against daptomycin-nonusceptible Staphylococcus aureus isolate 703 bloodstream form isolated from patient with endocarditis assessed as inhibition on heterogeneous subpopulation survival rate at 0.5 and 4 ug/ml after 48 hrs; format: functional, organism-based

`CC(C)C[C@@H](NC(=O)[C@H](C)NC(=O)CNC(=O)[C@@H](NC=O)C(C)C)C(=O)N[C@@H](C)C(=O)N[C@@H](C(=O)N[C@H](C(=O)N[C@@H](C(=O)N[C@@H](Cc1c[nH]c2ccccc12)C(=O)N[C@H](CC(C)C)C(=O)N[C@@H](Cc1c[nH]c2ccccc12)C(=O)N[C@H](CC(C)C)C(=O)N[C@@H](Cc1c[nH]c2ccccc12)C(=O)N[C@H](CC(C)C)C(=O)N[C@@H](Cc1c[nH]c2ccccc12)C(=O)NCCO)C(C)C)C(C)C)C(C)C` [GRAMICIDIN D] (For-VGA[dL]A[dV]V[dV]W[dL]W[dL]W[dL]W-NHCH2CH2OH) was tested. Which Drug uptake [1] did it give?
The Drug uptake was 10 µg/mL.

What about the MIC [2] of the same compound?
The MIC was 32 µg/mL (≈ 17 µM).

And the MIC [3]?
Its MIC is 32 µg/mL (≈ 17 µM).

What about the Drug uptake [4] of the same compound?
Its Drug uptake is 9 µg/mL.

What about the Drug uptake [5] of the same compound?
The Drug uptake was 12 µg/mL.

What about the MIC [6] of the same compound?
The MIC was 32 µg/mL (≈ 17 µM).

What about the Drug uptake [7] of the same compound?
Its Drug uptake is 11 µg/mL.

What about the MIC [8] of the same compound?
Its MIC is 32 µg/mL (≈ 17 µM).

Which Activity [9] does the source give for `CCCCCCCCCC(=O)N[C@@H](Cc1c[nH]c2ccccc12)C(=O)N[C@H](CC(N)=O)C(=O)N[C@@H](CC(=O)O)C(=O)N[C@@H]1C(=O)NCC(=O)N[C@@H](CCCN)C(=O)N[C@@H](CC(=O)O)C(=O)N[C@H](C)C(=O)N[C@@H](CC(=O)O)C(=O)NCC(=O)N[C@H](CO)C(=O)N[C@@H]([C@H](C)CC(=O)O)C(=O)N[C@@H](CC(=O)c2ccccc2N)C(=O)O[C@@H]1C` here?
The Activity was “Active”.

And the MIC [10]?
The MIC was 2 µg/mL (≈ 1.23 µM).

And the Activity [11]?
Its Activity is “inactive”.

What about the Activity [12] of the same compound?
Its Activity is “inactive”.

What about the Activity [13] of the same compound?
Its Activity is “inactive”.

What about the Drug uptake [14] of the same compound?
Its Drug uptake is 1.61 µg/mL.

And the Activity [15]?
The Activity was “inactive”.

What about the MIC [16] of the same compound?
The MIC was 2 µg/mL (≈ 1.23 µM).

What about the Activity [17] of the same compound?
The Activity was “inactive”.

And the MIC [18]?
Its MIC is 0.5 µg/mL (≈ 0.309 µM).

What about the Activity [19] of the same compound?
Its Activity is “inactive”.

What about the MIC [20] of the same compound?
The MIC was 0.38 µg/mL (≈ 0.234 µM).

And the Activity [21]?
Its Activity is “inactive”.

What about the Drug uptake [22] of the same compound?
Its Drug uptake is 2.32 µg/mL.

What about the Drug uptake [23] of the same compound?
Its Drug uptake is 5.4 µg/mL.

And the Activity [24]?
Its Activity is “Active”.

And the Activity [25]?
Its Activity is “inactive”.

And the Activity [26]?
The Activity was “inactive”.

What about the Activity [27] of the same compound?
The Activity was “inactive”.

And the Activity [28]?
Its Activity is “Active”.

What about the Activity [29] of the same compound?
Its Activity is “Active”.

And the Activity [30]?
The Activity was “inactive”.

What about the Activity [31] of the same compound?
The Activity was “inactive”.

And the Activity [32]?
The Activity was “inactive”.

And the Activity [33]?
Its Activity is “Active”.

And the Activity [34]?
The Activity was “inactive”.

And the Activity [35]?
Its Activity is “Active”.

And the Drug uptake [36]?
The Drug uptake was 2.24 µg/mL.

And the Activity [37]?
The Activity was “inactive”.

What about the MIC [38] of the same compound?
The MIC was 0.094 µg/mL (≈ 0.058 µM).

And the MIC [39]?
The MIC was 0.75 µg/mL (≈ 0.463 µM).

And the Activity [40]?
Its Activity is “inactive”.

What about the Activity [41] of the same compound?
Its Activity is “inactive”.
